m = 2'-O-methyl; r = 2'-OH (RNA); f = 2'-fluoro

Series [1] can be described thus: Pharmacokinetics of cotinine-pegaptanib and its anti-cotinine IgG complex in mice (serum VEGF ELISA). It counts as in vivo. Conditions: ICR mouse, tail vein, 0.135 mg/kg. On the procedure:
Male wild-type ICR mouse aged from 4 to 6 weeks were injected through tail vein with cotinine-pegaptanib (0.135 mg/kg) and a cotinine-pegaptanib (0.135 mg/kg)/anti-cotinine IgG (1 mg/kg) complex, diluted in 100 μL of PBS. Each peripheral blood was obtained through the orbital plexus at 0, 0.5, 1, 1.5 and 2 hours after the injection, and the obtained peripheral blood was maintained at a room temperature for 30 minutes then centrifuged at 800 g for 15 minutes to collect supernatant only so that serum was obtained, and analyzed by using ELISA.
Each well of a 96-well ELISA plate was coated with 50 ng of human VEGF dissolved in PBS overnight, and then blocked by PBSB. Then, each serum was diluted in PBSB at a ratio of 1:100, and added to each well with 100 nM of an anti-cotinine IgG The plate was maintained at a room temperature for one hour and washed with PBS-T, and then HRP-bound rabbit anti-human Fc specific IgG (Thermo Fisher Scientific) was added to each well. The resultant mixture was maintained at room temperature for one hour. Subsequently, 3,3′,5,5′-tetramethylbenzidine (TMB) (Thermo Fisher Scientific) was added as a substrate to the resultant mixture, and kept at a room temperature for 15 minutes, followed by measuring the optical density at 650 nm.
For orientation: ELISA stands for enzyme-linked immunosorbent assay.

The conditions of series [2]: in vivo; cited from earlier work.
A further series has as its system humans. Conditions: cited from earlier work.
The test system of a further series is mouse. As to conditions: cited from earlier work.

For “cotinine-pegaptanib: nucleic acid part of pegaptanib RNA aptamer (SEQ ID NO: 5) conjugated with cotinine via amino C6 linker (CGGAAUCAGUGAAUGCUUAUACAUCCG; sugars from the 5' end fmmrrffmmfmmmfmfffmfmfmfffm, backbone not given here; cotinine conjugated via amino C6 linker, further chemistry not fully specified)”, the “degradation after injection into the body” value in series [1] is recorded as “degraded immediate after injection into the body”.
Broadly, the LD50 is the dose expected to kill half of the subjects tested. With `CN1C(=O)CC[C@H]1c1cccnc1` [cotinine], in series [2], the half-life in serum entry is given as “about 16 hours”. Besides, the side effects entry in the series on humans (4-day administration at a daily dose of 1.8 g) is reported as “no particular side effects have not been reported”. The “physiological activity; physiological and behavioral changes” value with humans (humans, maximally 160 mg for three days) is “any physiological and behavioral changes have not been reported”. Besides, the LD50 with mouse was 2000 to 4000 mg/kg.

The values above are taken from patent US9867886B2, “Complex in which anti-cotinine antibody is bound to conjugate of cotinine and binding substance, and use thereof” (SNU R&DB FOUNDATION, priority 2011, dated 2018).
